Source: US8110689B2, “Benzanilides with insecticidal activity” (Bayer Cropsciene AG, priority 2006, dated 2012)

Tests used:
[1] = system: organophosphorous- and carbamate-resistant Myzus persicae; details: 100 ppm; 7 days after application; 28° C. greenhouse

Compound `CSC[C@H](C)NC(=O)c1c(Cl)cccc1C(=O)Nc1ccc(Cc2cc(C(F)(F)F)cc(C(F)(F)F)c2)cc1C` has a melting point of 57 to 62 °C.
Work on `CSC[C@H](C)NC(=O)c1c(Cl)cccc1C(=O)Nc1ccc(Cc2cc(C(F)(F)F)cc(C(F)(F)F)c2)cc1C` [Compound No. 19] yielded an insect mortality [1] of 100%.
`Cc1cc(Cc2cc(C(F)(F)F)cc(C(F)(F)F)c2)ccc1NC(=O)c1cccc(Cl)c1C(=O)N[C@@H](C)CS(C)(=O)=O` showed a melting point of 155 to 158 °C.
`CSC[C@H](C)NC(=O)c1c(Cl)cccc1C(=O)Nc1ccc(Cc2cc(Br)cc(Br)c2)cc1C` [compound 152] gave an insect mortality [1] of 100%.
Work on `CSC[C@H](C)NC(=O)c1c(Cl)cccc1C(=O)Nc1ccc(Cc2cc(C(F)(F)F)cc(C(F)(F)F)c2)nc1C` yielded a melting point of 73 to 79 °C.
With `Cc1cc(Cc2cc(C(F)(F)F)cc(C(F)(F)F)c2)ccc1NC(=O)c1cccc(Cl)c1C(=O)N[C@@H](C)C[S+](C)[O-]` (stereo partly shown) the melting point was 162 to 165 °C.
Work on `CSC[C@H](C)NC(=O)c1c(C)cccc1C(=O)Nc1ccc(Cc2cc(C(F)(F)F)cc(C(F)(F)F)c2)cc1C` yielded a melting point of 85 to 94 °C.
